The target of one experiment is T1, AR (Rattus norvegicus, UniProt P15207).
T1 sequence (P15207 1-902): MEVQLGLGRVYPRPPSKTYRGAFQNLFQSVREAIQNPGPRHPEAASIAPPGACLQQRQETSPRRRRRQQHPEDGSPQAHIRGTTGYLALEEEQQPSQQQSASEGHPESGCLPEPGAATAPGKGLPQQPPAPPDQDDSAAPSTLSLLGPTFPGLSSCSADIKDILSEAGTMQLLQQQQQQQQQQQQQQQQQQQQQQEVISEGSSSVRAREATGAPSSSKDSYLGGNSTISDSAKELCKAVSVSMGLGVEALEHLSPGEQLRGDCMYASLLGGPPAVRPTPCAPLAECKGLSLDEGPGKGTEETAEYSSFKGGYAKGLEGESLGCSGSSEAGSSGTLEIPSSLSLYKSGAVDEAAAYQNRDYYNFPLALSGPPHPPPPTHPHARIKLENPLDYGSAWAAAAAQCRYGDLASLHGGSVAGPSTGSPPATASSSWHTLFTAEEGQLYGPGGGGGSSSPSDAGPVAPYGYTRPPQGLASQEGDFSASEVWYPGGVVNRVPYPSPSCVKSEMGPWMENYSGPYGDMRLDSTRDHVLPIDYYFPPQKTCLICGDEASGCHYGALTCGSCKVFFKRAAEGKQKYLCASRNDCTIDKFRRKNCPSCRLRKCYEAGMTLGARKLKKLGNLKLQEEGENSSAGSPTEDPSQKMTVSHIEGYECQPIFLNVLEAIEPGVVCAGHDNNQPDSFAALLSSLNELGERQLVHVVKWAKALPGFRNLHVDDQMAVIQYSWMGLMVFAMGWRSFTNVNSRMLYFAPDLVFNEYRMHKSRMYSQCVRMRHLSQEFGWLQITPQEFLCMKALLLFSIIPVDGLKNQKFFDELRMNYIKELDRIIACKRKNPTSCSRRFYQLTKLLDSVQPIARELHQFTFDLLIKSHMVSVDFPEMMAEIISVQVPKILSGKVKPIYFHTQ
From the text: Biol. Med., 83, 175 (1953); B. L. Beyler et al, “Methods for evaluating anabolic and catabolic agents in laboratory animals”, J. Amer. Med. Women's Ass., 23, 708 (1968); H. Fukuda et al., “Investigations of the levator ani muscle as an anabolic steroid assay”, Nago Dai. Yak. Ken. Nem. 14, 84 (1966) the disclosures of which are herein incorporated by reference.
The basis of this assay lies in the well-defined action of androgenic agents on the maintenance and growth of muscle tissues and sexual accessory organs in animals and man. […] J. Anat. […] Ital. Biol. Sper. […] II. […] Ital. Biol. Sper. 42, 1600 (1966); A. Boris et al., Steroids 15, 61 (1970). As described above, the effects of androgens on maintenance of male sexual accessory organs, such as the prostate and seminal vesicles, is well described. Castration results in rapid involution and atrophy of the prostate and seminal vesicles. This effect can be reversed by exogenous addition of androgens. Since both the levator ani muscle and the male sex organs are the tissues most responsive to the effects of androgenic agents, this model is used to determine the androgen dependent reversal of atrophy in the levator ani muscle and the sex accessory organs in immature castrated rats. Sexually mature rats (200-250 g, 6-8 weeks-old, Sprague-Dawley, Harlan) were acquired castrated from the vendor […]. […]

A further experiment concerns the target glucocorticoid receptor (Homo sapiens, UniProt P04150). Description: cell-based. Conditions: A549, read-out: % inhibition of the reporter system as compared to the buffer control with 10 ng/mL PMA alone. As to the method:
The AP-1 assay is a cell-based luciferase reporter assay. A549 cells, which contain endogenous glucocorticoid receptor, were stably transfected with an AP-1 DNA binding site attached to the luciferase gene. Cells are then grown in RPMI+10% fetal calf serum (charcoal-treated)+Penicillin/Streptomycin with 0.5 mg/mL geneticin. Cells are plated the day before the assay at approximately 40000 cells/well. On assay day, the media is removed by aspiration and 20 μL assay buffer (RPMI without phenol red+10% FCS (charcoal-treated)+Pen/Strep) is added to each well. At this point either 20 μL assay buffer (control experiments), the compounds of the present invention (“test compounds”) (dissolved in DMSO and added at varying concentrations) or dexamethasome (100 nM in DMSO, positive control) are added to each well. The plates are then pre-incubated for 15 min at 37° C., followed by stimulation of the cells with 10 ng/mL PMA. The plates are then incubated for 7 h at 37° C. after which 40 μL luciferase substrate reagent is added to each well. Activity is measured by analysis in a luminometer as compared to control experiments treated with buffer or dexamethasome.

The subject of experiment [1] is wild type AR (MDA 453 cells). Conditions: read-out: Kd for [3H]-DHT, Scatchard analysis, 4 h at 37° C. As to the method:
For the whole-cell binding assay, human LNCaP cells (T877A mutant AR) or MDA 453 (wild type AR) in 96-well microtiter plates containing RPMI 1640 or DMEM supplemented with 10% charcoal stripped CA-FBS (Cocaleco Biologicals) respectively, were incubated at 37° C. to remove any endogenous ligand that might be complexed with the receptor in the cells.
For the saturation analysis, the difference between the total binding and the non-specific binding, was defined as specific binding. […] See e.g. D. Rodbard, Mathematics and statistics of ligand assays: an illustrated guide: In: J. Langon and J. J. Clapp, eds., Ligand Assay, Masson Publishing U.S.A., Inc., New York, pp. 45-99, (1981), the disclosure of which is herein incorporated by reference.
Two replicates were used for each sample. […] After correcting for non-specific binding, IC50 values were determined. […] C2C12 Mouse Myoblast Transactivation Assay

Usually pKd stands for the Kd on a negative log10 scale, so that one unit is a factor of ten.

pKd: −log10 of the molar value.

Chain of glucocorticoid receptor (P04150 whole entry): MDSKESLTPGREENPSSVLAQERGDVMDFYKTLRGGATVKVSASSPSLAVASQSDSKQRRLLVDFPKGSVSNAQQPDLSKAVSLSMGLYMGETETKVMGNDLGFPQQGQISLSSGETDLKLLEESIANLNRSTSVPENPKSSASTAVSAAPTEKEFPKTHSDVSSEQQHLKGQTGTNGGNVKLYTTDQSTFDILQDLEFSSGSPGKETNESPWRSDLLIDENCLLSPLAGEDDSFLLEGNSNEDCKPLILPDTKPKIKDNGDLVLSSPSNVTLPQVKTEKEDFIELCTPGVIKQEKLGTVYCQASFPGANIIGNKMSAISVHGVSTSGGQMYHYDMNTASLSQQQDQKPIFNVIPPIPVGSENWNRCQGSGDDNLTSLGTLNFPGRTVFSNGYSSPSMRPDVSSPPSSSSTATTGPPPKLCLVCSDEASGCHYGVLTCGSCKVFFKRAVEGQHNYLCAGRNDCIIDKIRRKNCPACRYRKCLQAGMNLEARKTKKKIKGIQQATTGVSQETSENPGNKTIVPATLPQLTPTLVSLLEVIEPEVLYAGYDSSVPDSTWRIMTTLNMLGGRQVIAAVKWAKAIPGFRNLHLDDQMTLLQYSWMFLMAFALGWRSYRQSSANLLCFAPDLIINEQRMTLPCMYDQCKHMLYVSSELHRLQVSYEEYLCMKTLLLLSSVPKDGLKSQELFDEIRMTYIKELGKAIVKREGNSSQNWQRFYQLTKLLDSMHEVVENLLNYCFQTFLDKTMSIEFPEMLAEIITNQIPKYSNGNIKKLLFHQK

As for `CCC(=O)O[C@H]1CC[C@H]2[C@@H]3CCC4=CC(=O)CC[C@]4(C)[C@H]3CC[C@]12C` [TP, testosterone propionate], the “EC50 (increase in organ weight)” value at AR (castrated rats, organ weight) was approximately 0.03 mg. The “potency relative to free T” value on AR (higher potency than free T) is given as 10-30 fold.
Take `C[C@@H]1C[C@H]2[C@@H]3CCC4=CC(=O)C=C[C@]4(C)[C@@]3(F)[C@@H](O)C[C@]2(C)[C@@]1(O)C(=O)CO` [dexamethasone]: the inhibition at 10 µM at glucocorticoid receptor worked out at 65%.
Turning to “tritiated dihydrotestosterone [[^3H]-DHT]”, in experiment [1], the pKd was 9.15.
